Assay results taken from publication PMC11012124, “Synthesis of Novel Triazine-Based Chalcones and 8,9-dihydro-7H-pyrimido[4,5-b][1,4]diazepines as Potential Leads in the Search of Anticancer, Antibacterial and Antifungal Agents” (International Journal of Molecular Sciences, 2024).

Columns and labels:
SF-295 = assay: cells; details: Homo sapiens, SF-295, 48 h; for CC50: read-out: LC50
U251 = assay: cells; details: Homo sapiens, U-251, 48 h; for GI50: U251, 48 h; for CC50: read-out: LC50
UO-31 = assay: cells; details: Homo sapiens, UO-31, 48 h; for CC50: read-out: LC50
M14 = assay: cells; details: Homo sapiens, M14, 48 h; for CC50: read-out: LC50
ACHN = assay: cells; details: Homo sapiens, 48 h; for CC50: read-out: LC50
UACC-257 = assay: cells; details: Homo sapiens, UACC-257, 48 h; for CC50: read-out: LC50
HCT-116 = assay: cells; details: Homo sapiens, HCT-116, 48 h; for CC50: read-out: LC50
COLO 205 = assay: cells; details: Homo sapiens, COLO 205, 48 h; for CC50: read-out: LC50
HS 578T = assay: cells; details: Homo sapiens, 48 h; for CC50: read-out: LC50
MCF7 = assay: cells; details: Homo sapiens, MCF7, 48 h; for CC50: read-out: LC50
RPMI-8226 = assay: cells; details: Homo sapiens, RPMI-8226, 48 h; for CC50: read-out: LC50
60 cancer cell lines = assay: NCI-60 one-dose screen (10 μM); assay type: cell-based; details: Homo sapiens; one dose of 10 μM, mean over 60 cancer cell lines; read-out: Mean Growth Percent (MGP)
Excerpt: Additionally, the mean of the growth percentages (MGP) of each compound against all the 60 cancer cell lines is also reported, which is used as one of the selection criteria to continue with tests at five concentration doses.

SF-268 = assay: cells; details: Homo sapiens, SF-268, 48 h; for CC50: read-out: LC50
OVCAR-3 = assay: cells; details: Homo sapiens, OVCAR-3, 48 h; for CC50: read-out: LC50
BT-549 = assay: cells; details: Homo sapiens, BT-549, 48 h; for CC50: read-out: LC50
NCI-H226 = assay: cells; details: Homo sapiens, NCI-H226, 48 h; for CC50: read-out: LC50
MDA-MB-435 = assay: cells; details: Homo sapiens, MDA-MB-435, 48 h; for CC50: read-out: LC50
CCRF-CEM = assay: cells; details: Homo sapiens, 48 h; for CC50: read-out: LC50
EKVX = assay: cells; details: Homo sapiens, 48 h; for CC50: read-out: LC50
LOX IMVI = assay: cells; details: Homo sapiens, 48 h; for CC50: read-out: LC50, LOX IMVI, 48 h
MALME-3M = assay: cells; details: Homo sapiens, 48 h; for CC50: read-out: LC50
UACC-62 = assay: cells; details: Homo sapiens, UACC-62, 48 h; for CC50: read-out: LC50
HL-60(TB) = assay: cells; details: Homo sapiens, HL-60, 48 h; for CC50: read-out: LC50
DU-145 = assay: cells; details: Homo sapiens, DU-145, 48 h; for CC50: read-out: LC50
OVCAR-5 = assay: cells; details: Homo sapiens, OVCAR-5, 48 h; for CC50: read-out: LC50
OVCAR-4 = assay: cells; details: Homo sapiens, OVCAR-4, 48 h; for CC50: read-out: LC50
OVCAR-8 = assay: cells; details: Homo sapiens, OVCAR-8, 48 h; for CC50: read-out: LC50
SF-539 = assay: cells; details: Homo sapiens, SF-539, 48 h; for CC50: read-out: LC50, SF-539, 48 h
HT29 = assay: cells; details: Homo sapiens, HT-29, 48 h; for CC50: read-out: LC50
[1] = Hemolytic activity, spectrophotometric; assay type: cell-based, human; details: human, human red blood cells (huRBC), 5% hematocrit, 200 μg/mL, 37 °C
HOP-62 = assay: cells; details: Homo sapiens, HOP-62, 48 h; for CC50: read-out: LC50
MOLT-4 = assay: cells; details: Homo sapiens, MOLT-4, 48 h; for CC50: read-out: LC50
T-47D = assay: cells; details: Homo sapiens, T47D, 48 h; for CC50: read-out: LC50
MDA-MB-231/ATCC = assay: cells; details: Homo sapiens, MDA-MB-231, 48 h; for CC50: read-out: LC50
A498 = assay: cells; details: Homo sapiens, A498, 48 h; for CC50: read-out: LC50
PC-3 = assay: cells; details: Homo sapiens, PC-3, 48 h; for CC50: read-out: LC50
NCI-H322M = assay: cells; details: Homo sapiens, 48 h; for CC50: read-out: LC50
SN12C = assay: cells; details: Homo sapiens, 48 h; for CC50: read-out: LC50

In the case of `COc1cc(/C=C/C(=O)c2ccccc2)ccc1Oc1nc(Nc2ccc(F)cc2)nc(N(C)C)n1` [21a], the GI50 (SF-295) is reported as 6.89 µM, the CC50 (SF-295) is reported as > 100 µM and the GI50 (U251) is reported as 2.84 µM. For the same molecule, the CC50 (U251) was 60.6 µM, the GI50 (UO-31) was 4.4 µM and the CC50 (UO-31) was > 100 µM. The GI50 (M14) was 13 µM, the CC50 (M14) was > 100 µM and the GI50 (ACHN) was 8.29 µM. For the same molecule, the CC50 (ACHN) was > 100 µM, the GI50 (UACC-257) was 6.44 µM and the CC50 (UACC-257) was > 100 µM. It also gave a GI50 (HCT-116) of 3.21 µM, a CC50 (HCT-116) of 45.5 µM and a GI50 (COLO 205) of 15.1 µM. For the same molecule, the CC50 (COLO 205) was > 100 µM, the GI50 (HS 578T) was 5.44 µM and the CC50 (HS 578T) was > 100 µM. The GI50 (MCF7) was 3.08 µM, the CC50 (MCF7) was 78.2 µM and the GI50 (RPMI-8226) was 2.83 µM. The CC50 (RPMI-8226) was > 100 µM, the activity at 10 µM (60 cancer cell lines) was 24.6% and the GI50 (SF-268) was 12.2 µM. The CC50 (SF-268) was > 100 µM, the GI50 (OVCAR-3) was 11.8 µM and the CC50 (OVCAR-3) was > 100 µM. It also gave a GI50 (BT-549) of 12 µM, a CC50 (BT-549) of 68.1 µM and a GI50 (NCI-H226) of 4.94 µM. The CC50 (NCI-H226) was 64.9 µM, the GI50 (MDA-MB-435) was 7.39 µM and the CC50 (MDA-MB-435) was 94.3 µM. The GI50 (CCRF-CEM) was 3.38 µM, the CC50 (CCRF-CEM) was > 100 µM and the GI50 (EKVX) was 4.73 µM. For the same molecule, the CC50 (EKVX) was > 100 µM, the GI50 (LOX IMVI) was 1.6 µM and the CC50 (LOX IMVI) was 6.23 µM. The GI50 (MALME-3M) was 15.9 µM, the CC50 (MALME-3M) was 98.8 µM and the GI50 (UACC-62) was 4.99 µM. The CC50 (UACC-62) was 79.4 µM, the GI50 (HL-60(TB)) was 8.37 µM and the CC50 (HL-60(TB)) was > 100 µM. The GI50 (DU-145) was 27.3 µM, the CC50 (DU-145) was > 100 µM and the GI50 (OVCAR-5) was 13.9 µM. The CC50 (OVCAR-5) was > 100 µM, the GI50 (OVCAR-4) was 5.85 µM and the CC50 (OVCAR-4) was > 100 µM. It also gave a GI50 (OVCAR-8) of 5.9 µM, a CC50 (OVCAR-8) of 97.6 µM and a GI50 (SF-539) of 13.8 µM. It also gave a CC50 (SF-539) of 51.7 µM, a GI50 (HT29) of 4.36 µM and a CC50 (HT29) of 59.7 µM. For the same molecule, the hemolysis at 24 h, 200 µg/mL [1] was 2%, the GI50 (HOP-62) was 26.6 µM and the CC50 (HOP-62) was > 100 µM. For the same molecule, the GI50 (MOLT-4) was 2.56 µM, the CC50 (MOLT-4) was > 100 µM and the GI50 (T-47D) was 3.36 µM. The CC50 (T-47D) was > 100 µM, the GI50 (MDA-MB-231/ATCC) was 6.92 µM and the CC50 (MDA-MB-231/ATCC) was 56.1 µM. For the same molecule, the GI50 (A498) was 27 µM, the CC50 (A498) was > 100 µM and the GI50 (PC-3) was 10 µM. For the same molecule, the CC50 (PC-3) was > 100 µM, the GI50 (NCI-H322M) was 28.7 µM and the CC50 (NCI-H322M) was > 100 µM. For the same molecule, the GI50 (SN12C) was 7.32 µM and the CC50 (SN12C) was 54.5 µM.
In the case of `CN(C)c1nc(NCCNS(=O)(=O)c2ccc(C(=O)/C=C/c3ccccc3)cc2)nc(N2CCOCC2)n1` [23a], the GI50 (SF-295) is reported as 15.6 µM, the CC50 (SF-295) is reported as 59.5 µM and the GI50 (U251) is reported as 11.7 µM. The CC50 (U251) was 57.2 µM, the GI50 (UO-31) was 11.2 µM and the CC50 (UO-31) was 55.7 µM. For the same molecule, the GI50 (M14) was 14.6 µM, the CC50 (M14) was 68.5 µM and the GI50 (ACHN) was 18.2 µM. It also gave a CC50 (ACHN) of 72.2 µM, a GI50 (UACC-257) of 17.9 µM and a CC50 (UACC-257) of 58.3 µM. The GI50 (HCT-116) was 1.82 µM, the CC50 (HCT-116) was 7.1 µM and the GI50 (COLO 205) was 20.2 µM. The CC50 (COLO 205) was 80.7 µM, the GI50 (HS 578T) was 17.1 µM and the CC50 (HS 578T) was > 100 µM. It also gave a GI50 (MCF7) of 3.49 µM, a CC50 (MCF7) of 62 µM and a GI50 (RPMI-8226) of 3.25 µM. For the same molecule, the CC50 (RPMI-8226) was > 100 µM, the activity at 10 µM (60 cancer cell lines) was 61.9% and the GI50 (SF-268) was 13.7 µM. It also gave a CC50 (SF-268) of 70.1 µM, a GI50 (OVCAR-3) of 15.3 µM and a CC50 (OVCAR-3) of 53.4 µM. For the same molecule, the GI50 (BT-549) was 11.2 µM, the CC50 (BT-549) was 50 µM and the GI50 (NCI-H226) was 13.5 µM. It also gave a CC50 (NCI-H226) of 74.2 µM, a GI50 (MDA-MB-435) of 14.7 µM and a CC50 (MDA-MB-435) of 54.4 µM. For the same molecule, the GI50 (CCRF-CEM) was 4.41 µM, the CC50 (CCRF-CEM) was > 100 µM and the GI50 (EKVX) was 14.7 µM. For the same molecule, the CC50 (EKVX) was 63.8 µM, the GI50 (LOX IMVI) was 1.97 µM and the CC50 (LOX IMVI) was 8.68 µM. For the same molecule, the GI50 (MALME-3M) was 15.2 µM, the CC50 (MALME-3M) was 56.5 µM and the GI50 (UACC-62) was 12 µM. The CC50 (UACC-62) was 52.3 µM, the GI50 (HL-60(TB)) was 6.18 µM and the CC50 (HL-60(TB)) was > 100 µM. For the same molecule, the GI50 (DU-145) was 15.1 µM, the CC50 (DU-145) was 53.3 µM and the GI50 (OVCAR-5) was 12.1 µM. It also gave a CC50 (OVCAR-5) of 55.9 µM, a GI50 (OVCAR-4) of 14.3 µM and a CC50 (OVCAR-4) of 54 µM. It also gave a GI50 (OVCAR-8) of 16.4 µM, a CC50 (OVCAR-8) of 61.7 µM and a GI50 (SF-539) of 11.1 µM. For the same molecule, the CC50 (SF-539) was 53.2 µM, the GI50 (HT29) was 3.8 µM and the CC50 (HT29) was 43.9 µM. The hemolysis at 24 h, 200 µg/mL [1] was 0.7%, the GI50 (HOP-62) was 16.4 µM and the CC50 (HOP-62) was 62.7 µM. The GI50 (MOLT-4) was 4.27 µM, the CC50 (MOLT-4) was > 100 µM and the GI50 (T-47D) was 16 µM. For the same molecule, the CC50 (T-47D) was 87.4 µM, the GI50 (MDA-MB-231/ATCC) was 13.9 µM and the CC50 (MDA-MB-231/ATCC) was 54.7 µM. For the same molecule, the GI50 (A498) was 14.6 µM, the CC50 (A498) was 52.9 µM and the GI50 (PC-3) was 8.63 µM. For the same molecule, the CC50 (PC-3) was 58.9 µM, the GI50 (NCI-H322M) was 14.8 µM and the CC50 (NCI-H322M) was 56.5 µM. For the same molecule, the GI50 (SN12C) was 14.6 µM and the CC50 (SN12C) was 56.1 µM.
